Data published in patent US10092633B2, “Newly identified peptides for use in the induction of oral tolerance in young mammals” (NESTEC S.A., priority 2013, dated 2018).

Columns and labels:
HLA-DR = test: peptides bound to HLA-DR on cells cultured with NAN-HA/BEBA-HA formula, isolated by immunoprecipitation and identified by LC-MS/MS; assay type: binding, human; conditions: U937 and Thp1 cells incubated 24 hours with BEBA-HA; immunoprecipitation with clone L243; nano-LC-MSMS
Method: In a set of experiments detailed in Example 1, the present inventors identified the peptide sequences of BLG responsible for the induction of oral tolerance towards milk proteins, in particular BLG. In a first step, using a cellular based assay, partially hydrolyzed infant formula NAN HA™ (otherwise known as BEBE HA™) from Nestlé, was incubated with human cells expressing the Major Histocompatibility Complex (MHC) class II receptor, HLA-DR. As the first step in the induction of oral tolerance, the HLA receptor presents peptide sequences to the T cells, thereby inducing tolerance. Thus, development of tolerance is largely dependent on the recognition of the peptide sequence by the MHC.
Thus, in the current invention, the human cells expressing HLA-DR were cultured in the presence of NAN-HA™ formula (which had been verified to be non-toxic for the cells), the peptides that bound to the HLA receptor were isolated by immunoprecipitation, and then identified by mass spectrometry and amino acid sequencing.
The Thp1 and U937 cells were incubated in 20 mL RPMI-1640 medium with L-Glutamine (Sigma) supplemented with 10% heat-inactivated FCS (Amimed, Bioconcept) and Penicillin/Streptomycin (Sigma) at a concentration of 1×10^6 cells/mL in a T175 cm^2 (Falcon) with respectively 1 ug/mL and 100 ug/mL of BEBA-HA (Nestlé, Lot# L02680742AP) for a 24 hours period at 37° C. in presence of 5% CO2. Cells were spun down and harvested to perform immunoprecipitation of MHC-peptide complexes.
Briefly, for each condition tested (control without BEBA-HA, sample with BEBA-HA for both cell lines), 2×10^7 cells were resuspended in ice cold TBS and washed three times. […]
Before MS analysis, HLA-DR peptides were desalted using either reversed-phase C18 (The Nest group, USA) or mixed-mode OASIS (Waters, USA) desalting columns as described in the manufacturer's manual. After desalting, peptides were analyzed by nano-LC-MSMS using an in-house Magic C18 column (150×0.075 mm) for peptide separation (2-35% Acetontril/0.1% formaic acid in 30 minutes) coupled to an Orbitrap XL instrument. […]

[1] = test system: oral tolerance to β-lactoglobulin; conditions: previously identified as part of a longer peptide sequence in the earlier filing; cited from earlier work
[2] = test system: BLG-specific IgE antibodies; test: experimental mouse model of sensitization to BLG: gavage, then i.p. sensitization, BLG-specific IgE in serum; assay type: in vivo, BALB/cJ mice; conditions: gavage days 1, 2, 3, 8, 9 and 10 (0.22 μmole); i.p. native BLG on alum day 14; serum days 30-33; FIG. 1
Method: Mice were fed either native BLG or either synthetic peptide (84-106) or (25-107) by gavage on day 1, 2, 3, 8, 9 and 10. They were then sensitized by i.p. administration with native BLG on day 14. Serum IgE levels were measured between day 30 and 33.
Specific pathogen-free (SPF) BALB/cJ mice (3 to 4 weeks-old females, Centre d'Elevage René Janvier, Le Genest Saint-Isle, France) were housed in filtered cages under normal SPF husbandry conditions (autoclaved bedding and sterile water) and were acclimatized for two weeks before experiments. They were maintained on a diet deprived of animal protein, and in which BLG was not detected using specific sandwich immunoassays. All animal experiments were performed according to European Community rules of animal care, and with authorization 91-368 of the French Veterinary Services. […]
Groups of 6 or 7 mice were administered either 4 mg of native bovine BLG, or equivalent quantity (i.e. 0.22 μmole) of isolated synthetic BLG peptides. […]
The efficacy of mice sensitization was assessed by quantitative measurements of BLG-specific IgE antibodies on individual serum samples collected from the mice retro-orbital venous plexus under light anaesthesia (Isoflurane, Baxter) between days 30-33. Non-specific binding was determined using individual sera from 10 naive mice, and was deduced from the absorbance values measured with immune sera. […]

Substance | recognition by and binding to HLA-DR (identified among HLA-DR bound peptides) (HLA-DR) | induction of oral tolerance [1] | BLG-specific serum IgE level / tolerance induction compared to control (PBS) [2]
EVDDEALEK [peptide c, previously known tolerogenic BLG peptide, position 143-151, positive control] | identified by this method | inducers of oral tolerance | 
peptide (84-106): synthetic peptide corresponding to the bovine BLG sequence numbers 84-106 (MW 2731 Da) (IDALNENKVLVLDTDYKKYLLFC; UniProt P02754 100-122, looked up, fragment) |  |  | tendency towards a lower level of IgE
VLDTDY (SAEPEQ; UniProt P02754 126-131, looked up, fragment) [peptide b, previously known tolerogenic BLG peptide, position 110-115, positive control] | identified by this method | inducers of oral tolerance | 
IDALNENK [peptide a, previously known tolerogenic BLG peptide, position 100-107, positive control] | identified by this method | inducers of oral tolerance | 
